Source: patent US10100018B2, “Amide derivatives as lysophosphatidic acid receptor antagonists” (Takeda Pharmaceutical Company Limited, priority 2013, dated 2018)
Structures can show the parent of a compound that is named as a salt. Where two headings read alike, the source gives them in different places. Each block holds one compound with its values, some of them ahead of it.

Key:
[1] = system: bleomycin-induced scleroderma; assay: In vivo bleomycin induced scleroderma model; parameters: species or system C57BL/6 mice; conditions: for skin collagen content compared to the vehicle-treated group: skin samples Day 28
Method: In Vivo Bleomycin Induced Scleroderma Model
Adult male C57BL/6 mice, aged 8-10 weeks, were assigned to groups and allowed to acclimatise for a week. On Day −1, the back skin of the animals was shaved. From Day 0, animals were administered with 100 μl of a 1 mg/ml solution of bleomycin sulphate in phosphate buffered saline (PBS) by intradermal injection in the shaved skin. Injections were repeated in a one square centimeter area every other day for four weeks. A group of ten animals (Control group) was injected with an identical volume of PBS. Animals were weighed at the beginning of the experiment on Day 0 and then twice weekly throughout the study. At the end of the experiment, on Day 28, animals were culled and samples of back skin were taken for further analysis. All groups were n=10; the vehicle was distilled water and the administration volume was 10 ml/kg for oral gavage (p.o.); administration volume was 25 μl for topical application.
Bodyweights were graphed along with the standard error of the mean (SEM); Skin samples (two punch biopsies per animal, 4 mm in diameter each) samples were hydrolyzed and hydroxyproline content of the samples was determined from analysis in a semi-automated process using a continuous flow analyzer. Autoanalyser readings were calibrated against hydroxyproline standards and collagen content calculated.

[2] = system: FPP-induced hyperalgesia; assay: In vivo farnesyl pyrophosphate-induced inflammatory (hyperalgesia) model, Randall-Selitto; conditions: Rattus norvegicus, adult male rats, read-out: In vivo efficacy (minimum effective dose (MED)
Method: In Vivo Farnesyl Pyrophosphate-Induced Inflammatory Model
The FPP-induced hyperalgesia model is a pharmacodynamic rat model which involves inducing pain by injecting FPP, an agonist of LPA5 receptor, into the plantar surface of the hindpaw.
Withdrawal responses were reassessed at 30 and 90 minutes after injection of FPP in the ipsilateral paw.

[3] = molecular target: LPA5 receptor (Homo sapiens (Human), UniProt Q9H1C0); conditions: reported, Williams et al. (2009); cited from earlier work
Chain of LPA5 receptor (Q9H1C0 whole entry): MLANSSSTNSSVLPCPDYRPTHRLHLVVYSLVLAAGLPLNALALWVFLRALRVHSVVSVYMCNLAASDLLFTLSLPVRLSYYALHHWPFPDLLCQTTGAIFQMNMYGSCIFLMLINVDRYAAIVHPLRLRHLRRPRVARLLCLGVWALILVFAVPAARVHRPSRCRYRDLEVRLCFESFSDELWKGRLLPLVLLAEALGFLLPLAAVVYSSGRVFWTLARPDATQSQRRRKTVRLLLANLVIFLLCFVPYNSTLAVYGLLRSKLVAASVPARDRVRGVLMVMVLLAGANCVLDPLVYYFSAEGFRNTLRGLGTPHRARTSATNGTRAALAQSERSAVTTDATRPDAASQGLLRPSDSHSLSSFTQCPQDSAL

Structure (SMILES): Cc1ccc(NC(=O)c2ccc(CN3CCN(C)CC3)cc2)cc1Nc1nccc(-c2cccnc2)n1 [Imatinib, Imatinib mesylate, reference compound]
skin collagen content compared to the vehicle-treated group ([1]; administered from Day 0): non-significant reduction

Structure (SMILES): O=C(O)c1ccc(CN(CC(F)(F)F)C(=O)c2ccc(Oc3ccccc3F)cc2)cc1 [Example 3, 4-((4-(2-Fluorophenoxy)-N-(2,2,2-trifluoroethyl)benzamido)-methyl)benzoic acid]
minimal effective dose ([2]; route po): ≤ 10 mg/kg

Structure (SMILES): Cc1ccccc1Oc1ccc(C(=O)N(Cc2ccccc2)Cc2ccc(C(=O)O)cc2)cc1 [Example 24, 4-((N-Benzyl-4-(o-tolyloxy)benzamido)methyl)benzoic acid]
minimal effective dose ([2]; route po): 30 mg/kg

Structure (SMILES): O=C(O)c1ccc(CN(Cc2ccccc2)C(=O)c2ccc(Oc3ccccc3F)cc2)cc1 [Example 11, 4-((N-Benzyl-4-(2-fluorophenoxy)benzamido)methyl)benzoic acid]
minimal effective dose ([2]; route po): ≤ 10 mg/kg

Structure (SMILES): COc1ccccc1Oc1ccc(C(=O)N(Cc2ccc(C(=O)O)cc2)CC(F)F)cc1 [Example 29, 4-((N-(2,2-Difluoroethyl)-4-(2-methoxyphenoxy)benzamido)-methyl)benzoic acid]
minimal effective dose ([2]; route po): 3 mg/kg

Structure (SMILES): Cc1cccc(F)c1Oc1ccc(C(=O)N(Cc2ccc(C(=O)O)cc2)CC2CC2)cc1 [Example 40, 4-((N-(Cyclopropylmethyl)-4-(2-fluoro-6-methylphenoxy)-benzamido)methyl)benzoic acid]
minimal effective dose ([2]; route po): 60 mg/kg

Structure (SMILES): CC(C)=CCC/C(C)=C/CC/C(C)=C/COP(=O)(O)OP(=O)(O)O [Farnesyl pyrophosphate]
selectivity over other LPA receptors [3]: 3 fold

Structure (SMILES): COc1ccccc1Oc1ccc(C(=O)N(Cc2ccc(C(=O)O)cc2)CC2CC2)cc1 [Example 31, 4-((N-(Cyclopropylmethyl)-4-(2-methoxyphenoxy)benzamido)-methyl)benzoic acid]
minimal effective dose ([2]; route po): 1 mg/kg

bodyweight loss compared to the vehicle-treated group ([1]; 30 mg/kg p.o. BID, treated groups): did not differ
Structure (SMILES): O=C(O)c1ccc(CN(CC2CC2)C(=O)c2ccc(Oc3ccccc3F)cc2)cc1 [Example 5, 4-((N-(Cyclopropylmethyl)-4-(2-fluorophenoxy)benzamido)-methyl)benzoic acid]
minimal effective dose ([2]; route ip): 0.3 mg/kg | minimal effective dose ([2]; route po): ≤ 10 mg/kg | skin collagen content compared to the vehicle-treated group ([1]; administered from Day 0): significant reduction | skin collagen content compared to the vehicle-treated group ([1]; administered from Day 14 to Day 28, 30 mg/kg p.o. BID): significant reduction

Structure (SMILES): CC(C)CCN(Cc1ccc(C(=O)O)cc1)C(=O)c1ccc(Oc2ccccc2F)cc1 [Example 8, 4-((4-(2-Fluorophenoxy)-N-isopentylbenzamido)methyl)benzoic acid]
minimal effective dose ([2]; route po): 100 mg/kg

Structure (SMILES): CC(C)CN(Cc1ccc(C(=O)O)cc1)C(=O)c1ccc(Oc2ccccc2F)cc1 [Example 4, 4-((4-(2-Fluorophenoxy)-N-isobutylbenzamido)methyl)benzoic acid]
minimal effective dose ([2]; route ip): 1 mg/kg | minimal effective dose ([2]; route po): ≤ 10 mg/kg

Structure (SMILES): C[C@H]1C[C@H]2[C@@H]3CCC4=CC(=O)C=C[C@]4(C)[C@@]3(F)[C@@H](O)C[C@]2(C)[C@@]1(O)C(=O)CO [Betamethasone, reference compound]
skin collagen content compared to the vehicle-treated group ([1]; administered from Day 0): non-significant reduction
